One data set concerns normal skin cells. As to the kind of experiment: Cell proliferation with carnosol or its decomposed molecules (FIG. 11). Type of data set: cell-based. As to the method: FIG. 11. The effect of carnosol or its decomposed molecules on cell proliferation was determined.
UVB was generated from a Bench XX-Series UV Lamp (UVP Inc.) equipped with two 15-watt UVB tubes (UVP Inc.). The intensity of UVB was calibrated by a UVP model UVX digital radiometer (UVP Inc.) after the lamps warmed up for 5 min. For irradiating cells, the dose rate for 8 mJ/cm^2 or 50 mJ/cm^2 of UVB radiation was 0.8 or 3.8 mW/s respectively. Medium was removed before exposing the cells to UVB. After UVB radiation, fresh medium was added to the culture plates with or without drugs, and the cells were continue incubating at 37° C. with 5% CO2 until further analysis. Carnosol was disovled in DMSO and was irradiated with 50 mJ/cm^2 of UVB radiation at a dose rate of 3.8 mW/s before subjecting to cells or structure analysis using Mass Spectrum.

Data set [1] deals with IκB. As to the kind of experiment: Western blot for IκB protein level, MEF cells. Type of data set: cell-based, mouse. The following applies: 20 μM carnosol, 6 h post UVB. As to the method:
(§1) FIGS. 7A-7F: Carnosol inhibited UVB-induced NF-κB activation. Cells were exposed to UVB radiation in the presence or absence of carnosol. Cells were lysed at indicated time point and protein levels were measured by western blot analysis. (FIG. 7A) Western blot for IκB protein level in HaCaT cells at 2, 4 h post UVB radiation at 1, 10 or 20 μM carnosol treatment. (FIG. 7B) Western blot analysis for IκB protein level in HaCaT cells at 6 h post UVB radiation in the presence or absence of carnosol. (FIG. 7C) Western blot analysis for IκB protein level in MEF cells at 6 h post UVB radiation in the presence or absence of carnosol. (FIG. 7D) Western blot for 5276 site phosphorylation of NF-κB in HaCaT cells at 6 h post UVB with indicated carnosol concentration. (FIG. 7E) EMSA assay for HaCaT cells at 2, 4, 6 h post UVB radiation in the presence or absence of carnosol (20 μM). (FIG. 7F) Statistical analysis of the EMSA assay using two to three sets of independent experiments. *p<0.05 versus control group, **p<0.05 versus UV group at indicated time point.
(§2) Cells were lysed with Nonidet P-40 (NP-40) lysis buffer (2% NP-40, 80 mM NaCl, 100 mM Tris-HCl pH 8.0, 0.1% SDS) with proteinase inhibitor mixture (Complete™, Roche Molecular Biochemicals) at indicated time point. […] Protein concentration was measured by Protein DC Assay kit (Bio-Rad Laboratories). […]
In general terms: A western blot detects proteins with antibodies after separation by electrophoresis.

Data set [2] has as its system 6-4 photoproducts (6-4PP). The data set can be described thus: Quantitative measurement of 6-4 photoproducts after UVB. Type of data set: cell-based. The following applies: with vs without carnosol. From the text: FIG. 5F: Quantitative measurement of 6-4 photoproducts (6-4PP), with and without UVB, and with and without carnosol. *p<0.05 versus corresponded control group
(§3) There are two major forms of DNA damage caused by UVB radiation: one is the direct DNA damage which forms CPD; the other is the oxidation-caused DNA damage, which causes the formation of 6-4 PP. In order to identify which form of DNA damage is protected by carnosol, a quantitative assay to identify the production of both DNA damage products after UVB radiation with or without carnosol treatment was performed.

The subject of the next data set is ONOO^− in HaCaT cells. The data set can be described thus: Peroxynitrite measurement (DAR) after UVB radiation. Type of data set: cell-based, Human. The following applies: 20 μM carnosol. As to the method:
FIGS. 4A-4B: Quantitative analysis of NO* and ONOO^− after UVB radiation. HaCaT cells were irradiated with UVB radiation in the presence or absence of carnosol (20 μM). At indicated time point, cells were stained with DAF-2DA or DAR. The fluorescent intensity was then measured and normalized to cell viability. (FIG. 4A) Quantitative measurement of NO*. (FIG. 4B) Quantitative measurement of ONOO^−. *p<0.05 versus corresponded group with carnosol treatment upon UVB radiation.
The level of NO* was measured by 5 mM diaminofluorescein diacetate (DAF-2DA) (ex490/em520 nm) and ONOO^− was measured by 5 mM diaminorhodamine (DAR) (ex488/em515 nm). 1×10^5 HaCaT cells were seeded in 96-well plate one day before measurement. […] The cells were then incubated in dark for 2 h at room temperature and the fluorescence was measured by luminometer (Molecular devices Spectra Max M2). The reading was then normalized by AlamarBlue cell viability assay (Life technology). 10% of the Alamar Blue reagent was added to cells with medium followed by 2 h incubation at 37° C. in dark then read the fluorescent at ex570/em590 nm using luminometer (Molecular devices Spectra Max M2).
Both NO* and ONOO^− are induced by UVB radiation. By using DAF-2DA (5 mM) and DAR (5 mM), the effect of carnosol on intracellular NO* and ONOO^− level, in a time dependent manner upon UVB radiation, was also measured.

Data set [3] concerns IκB. As to the kind of experiment: Western blot for IκB protein level, HaCaT cells. Type of data set: cell-based, Human. As to the method: as §1, §2
Data set [4] has as its system cyclobutane pyrimidine dimer (CPD) formation. As to the kind of experiment: Quantitative measurement of CPD formation after UVB. Particulars: with vs without carnosol. Type of data set: cell-based.
From the text: FIG. 5E: Quantitative measurement of cyclobutane pyrimidine dimer (CPD) formation, with and without UVB, and with and without carnosol. *p<0.05 versus corresponded control group, **p<0.05 versus corresponded UV group.
as §3

In the case of `CC(C)c1cc2c(c(O)c1O)[C@@]13CCCC(C)(C)[C@@H]1C[C@@H]2OC3=O` [carnosol], the “protection of the UVB-irradiated cells (proliferation)” value in the data set with normal skin cells is “partial protection”. In addition, the “cell proliferation / cell growth in normal skin cells” value in the data set with normal skin cells (without UVB protection context) is given as “some effect in inhibiting cell proliferation”. Besides, the IκB protein level result in the data set with IκB [1] is “partial recovery of IκB level”; in the data set with IκB [3] (HaCaT, 2, 4 h post UVB, dose dependent (1, 10, 20 μM)), “protects IκB level”; in the data set with IκB [3] (HaCaT, 6 h post UVB), “protection exists at least until 6 h”. In addition, the “6-4 PP formation after UVB radiation” value in data set [2] is reported as “no significant reduction”. Also, in the data set with ONOO^− in HaCaT cells (average from 2 h to 24 h post UVB), the “reduction of ONOO^− level” value was “about 40%”. In the data set with ONOO^− in HaCaT cells (no UVB), the “ONOO^− level of cells without radiation” value is recorded as “little effect”. Besides, the “formation of CPD after UVB radiation” value in data set [4] is given as “almost by half”.
